In US20170188607A1, “SOLUBILIZATION OF A SWEET MODULATOR AND FLAVOR” (Firmenich SA, priority 2014, published 2017):

Test: Crystallization onset of supersaturated solution stirred at 20° C., followed in a Crystalline PV device with CCD cameras
Format: physicochemical
Method: (§1) A concentrated solution 2 of (S)-1-(3-(((4-amino-2,2-dioxido-1H-benzo[c][1,2,6]thiadiazin-5-yl)oxy)methyl)piperidin-1-yl)-3-methylbutan-1-one at 1% (w/w) (10000 ppm) was prepared in water. The pH was adjusted to 11 using NaOH to form the (S)-1-(3-(((4-amino-2,2-dioxido-1H-benzo[c][1,2,6]thiadiazin-5-yl)oxy)methyl)piperidin-1-yl)-3-methylbutan-1-one sodium salt, and a homogeneous solution was obtained. Next, a syrup was prepared by mixing an aqueous solution of HFCS, citric acid and deionized water. […] of 100 ppm of (S)-1-(3-(((4-amino-2,2-dioxido-1H-benzo[c][1,2,6]thiadiazin-5-yl)oxy)methyl)piperidin-1-yl)-3-methylbutan-1-one, i.e. about 15 times above the intrinsic solubility of the compound at 20° C. The sample was stirred at 20° C. and crystallization was followed in a Crystalline PV device equipped with CCD cameras. Crystallization started after about 530 minutes.
as §1, with “acid, HydroxyPropyl Cellulose (HPC) 100k” for “acid”, “deionized water. The final syrup contained 43% fructose, 1% citric acid, 0.05% HPC and 55.95%” for “deionized”, “cameras.” for “cameras. Crystallization started after about 530 minutes.”
A concentrated solution 2 of (S)-1-(3-(((4-amino-2,2-dioxido-1H-benzo[c][1,2,6]thiadiazin-5-yl)oxy)methyl)piperidin-1-yl)-3-methylbutan-1-one at 1% (w/w) (10000 ppm) was prepared in water. The pH was adjusted to 11 using NaOH to form the (S)-1-(3-(((4-amino-2,2-dioxido-1H-benzo[c][1,2,6]thiadiazin-5-yl)oxy)methyl)piperidin-1-yl)-3-methylbutan-1-one sodium salt, and a homogeneous solution was obtained. Next, a citric acid buffer solution was prepared by mixing 50 mM citric acid in deionised water (pH=2.8). An aliquot of solution 2 was diluted 100 times with the buffer solution to yield a final concentration of 100 ppm of (S)-1-(3-(((4-amino-2,2-dioxido-1H-benzo[c][1,2,6]thiadiazin-5-yl)oxy)methyl)piperidin-1-yl)-3-methylbutan-1-one, i.e. about 15 times above the intrinsic solubility of the compound at 20° C. The sample was stirred at 20° C. and crystallization was followed in a Crystalline PV device equipped with CCD cameras.
A concentrated solution 2 of (S)-1-(3-(((4-amino-2,2-dioxido-1H-benzo[c][1,2,6]thiadiazin-5-yl)oxy)methyl)piperidin-1-yl)-3-methylbutan-1-one at 1% (w/w) (10000 ppm) was prepared in water. The pH was adjusted to 11 using NaOH to form the (S)-1-(3-(((4-amino-2,2-dioxido-1H-benzo[c][1,2,6]thiadiazin-5-yl)oxy)methyl)piperidin-1-yl)-3-methylbutan-1-one sodium salt, and a homogeneous solution was obtained. Next, a citric acid buffer solution was prepared by mixing 50 mM citric acid and carboxymethyl cellulose (CMC) in deionised water (pH=2.8). The final water solution contained 50 mM citric acid and 0.05% CMC. […]

SMILES: CC(C)CC(=O)N1CCC[C@H](COc2cccc3c2C(N)=NS(=O)(=O)N3)C1 [(S)-1-(3-(((4-amino-2,2-dioxido-1H-benzo[c][1,2,6]thiadiazin-5-yl)oxy)methyl)piperidin-1-yl)-3-methylbutan-1-one]
- time until crystallization started (Example 5 (comparative): 100 ppm, syrup 43 Brix (43% fructose, 1% citric acid), no polymer): about 530 minutes
- time until first crystals were observed (Example 6: 100 ppm, syrup 43 Brix with 0.05% HPC 100k): about 3520 minutes
- time until first crystals were observed (Example 7 (comparative): 100 ppm, 50 mM citric acid buffer pH 2.8, no polymer): about 166 minutes
- time until first crystals were observed (Example 8: 100 ppm, 50 mM citric acid buffer pH 2.8 with 0.05% CMC): about 466 minutes
- crystallization observation (Example 9: 100 ppm, syrup 43 Brix with 0.05% HPMC 100k): No crystallization was observed after seven days
